Laboratory results published in ChEMBL document CHEMBL1135703, “Synthesis and biological activity of a novel class of small molecular weight peptidomimetic competitive inhibitors of protein tyrosine phosphatase 1B” (2002).

Experiments:
[1] = target: T1, Tyrosine-protein phosphatase non-receptor type 1 (Homo sapiens) (UniProt P18031); experiment: Percent inhibition of Protein Tyrosine Phosphatase 1B (PTP 1B) assayed at 100 uM
T1 sequence (whole entry): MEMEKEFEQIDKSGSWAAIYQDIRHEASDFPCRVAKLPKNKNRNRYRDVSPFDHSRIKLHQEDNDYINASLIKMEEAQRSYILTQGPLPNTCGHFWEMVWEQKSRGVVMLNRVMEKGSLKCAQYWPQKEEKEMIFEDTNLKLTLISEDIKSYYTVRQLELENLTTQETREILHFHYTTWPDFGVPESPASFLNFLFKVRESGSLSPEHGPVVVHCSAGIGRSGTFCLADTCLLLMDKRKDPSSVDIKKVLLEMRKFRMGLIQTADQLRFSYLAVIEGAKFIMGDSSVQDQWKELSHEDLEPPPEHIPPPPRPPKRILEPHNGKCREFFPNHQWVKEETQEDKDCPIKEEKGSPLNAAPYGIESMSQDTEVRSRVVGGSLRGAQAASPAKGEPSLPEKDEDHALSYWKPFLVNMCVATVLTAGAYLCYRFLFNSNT

[2] = target: T2, Tyrosine-protein phosphatase non-receptor type 1 (Rattus norvegicus) (UniProt P20417); experiment: Percent inhibition of Protein-tyrosine phosphatase 1 (PTP) assayed at 100 uM
T2 sequence (whole entry): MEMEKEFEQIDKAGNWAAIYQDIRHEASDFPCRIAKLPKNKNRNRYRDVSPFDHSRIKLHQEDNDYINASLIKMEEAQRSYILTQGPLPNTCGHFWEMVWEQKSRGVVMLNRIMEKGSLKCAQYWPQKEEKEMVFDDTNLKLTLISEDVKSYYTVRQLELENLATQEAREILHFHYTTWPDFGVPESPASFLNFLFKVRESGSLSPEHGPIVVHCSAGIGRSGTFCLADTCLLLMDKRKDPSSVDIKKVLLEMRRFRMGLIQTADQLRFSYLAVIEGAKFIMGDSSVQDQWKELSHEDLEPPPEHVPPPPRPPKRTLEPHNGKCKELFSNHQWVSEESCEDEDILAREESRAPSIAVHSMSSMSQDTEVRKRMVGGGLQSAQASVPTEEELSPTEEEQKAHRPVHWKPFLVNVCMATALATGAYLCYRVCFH

[3] = target: Receptor-type tyrosine-protein phosphatase F (Homo sapiens) (UniProt P10586); experiment: Percent inhibition of Protein-tyrosine phosphatase Lar assayed at 100 uM
Chain of Receptor-type tyrosine-protein phosphatase F (Homo sapiens) (P10586 whole entry, the tested form may be a part): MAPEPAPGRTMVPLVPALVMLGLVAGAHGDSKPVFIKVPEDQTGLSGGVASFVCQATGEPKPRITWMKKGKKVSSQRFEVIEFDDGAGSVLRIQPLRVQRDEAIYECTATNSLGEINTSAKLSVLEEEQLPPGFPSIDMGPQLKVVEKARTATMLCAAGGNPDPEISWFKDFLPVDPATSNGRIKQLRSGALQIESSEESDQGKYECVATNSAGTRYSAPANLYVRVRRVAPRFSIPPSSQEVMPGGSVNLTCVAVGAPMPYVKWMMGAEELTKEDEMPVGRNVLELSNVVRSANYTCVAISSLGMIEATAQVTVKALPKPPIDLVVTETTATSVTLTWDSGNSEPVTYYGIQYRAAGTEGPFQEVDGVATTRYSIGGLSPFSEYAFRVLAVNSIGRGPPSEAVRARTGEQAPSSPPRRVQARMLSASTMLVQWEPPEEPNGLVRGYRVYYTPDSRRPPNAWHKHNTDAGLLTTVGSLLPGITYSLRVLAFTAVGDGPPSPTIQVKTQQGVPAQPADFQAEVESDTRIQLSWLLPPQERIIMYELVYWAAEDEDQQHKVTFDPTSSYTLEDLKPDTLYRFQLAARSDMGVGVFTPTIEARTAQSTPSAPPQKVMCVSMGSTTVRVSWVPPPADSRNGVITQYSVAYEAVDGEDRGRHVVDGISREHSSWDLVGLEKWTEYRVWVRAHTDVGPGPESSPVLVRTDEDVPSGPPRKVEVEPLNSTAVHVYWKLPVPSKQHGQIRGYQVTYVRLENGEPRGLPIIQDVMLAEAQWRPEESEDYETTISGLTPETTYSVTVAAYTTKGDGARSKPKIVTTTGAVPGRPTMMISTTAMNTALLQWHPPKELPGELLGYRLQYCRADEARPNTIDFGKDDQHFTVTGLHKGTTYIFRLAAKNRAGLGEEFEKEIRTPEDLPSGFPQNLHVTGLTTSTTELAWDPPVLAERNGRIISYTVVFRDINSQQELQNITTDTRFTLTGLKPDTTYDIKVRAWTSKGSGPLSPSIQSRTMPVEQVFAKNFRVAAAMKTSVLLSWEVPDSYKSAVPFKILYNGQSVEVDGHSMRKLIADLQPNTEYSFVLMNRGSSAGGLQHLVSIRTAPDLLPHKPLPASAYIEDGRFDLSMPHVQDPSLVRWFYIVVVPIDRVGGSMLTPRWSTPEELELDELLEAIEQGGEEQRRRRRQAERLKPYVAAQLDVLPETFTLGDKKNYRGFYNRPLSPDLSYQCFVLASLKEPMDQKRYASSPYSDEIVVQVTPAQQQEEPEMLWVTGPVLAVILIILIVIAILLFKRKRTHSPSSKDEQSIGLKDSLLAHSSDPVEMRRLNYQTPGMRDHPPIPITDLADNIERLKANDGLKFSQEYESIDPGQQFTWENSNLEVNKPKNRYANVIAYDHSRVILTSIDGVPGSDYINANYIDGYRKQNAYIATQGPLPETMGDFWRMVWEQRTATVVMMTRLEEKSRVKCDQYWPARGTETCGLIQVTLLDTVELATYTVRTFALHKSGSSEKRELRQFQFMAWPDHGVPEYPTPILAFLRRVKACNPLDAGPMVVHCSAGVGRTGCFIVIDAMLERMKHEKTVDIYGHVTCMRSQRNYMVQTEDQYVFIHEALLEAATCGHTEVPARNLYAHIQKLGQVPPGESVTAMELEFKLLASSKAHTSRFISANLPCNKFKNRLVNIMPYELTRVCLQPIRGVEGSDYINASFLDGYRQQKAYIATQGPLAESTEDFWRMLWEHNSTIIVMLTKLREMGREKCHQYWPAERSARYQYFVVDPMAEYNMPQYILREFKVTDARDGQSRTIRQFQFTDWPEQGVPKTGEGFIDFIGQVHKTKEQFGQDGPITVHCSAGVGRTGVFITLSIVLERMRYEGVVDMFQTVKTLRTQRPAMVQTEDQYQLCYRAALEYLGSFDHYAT

[4] = target: T3, Tyrosine-protein phosphatase non-receptor type 11 (Mus musculus) (UniProt P35235); experiment: (§1) Percent inhibition of Tyrosine phosphatase SHP2 SH2 domain containing PTP involved in insulin uM; details: concentration not given here
T3 sequence (whole entry): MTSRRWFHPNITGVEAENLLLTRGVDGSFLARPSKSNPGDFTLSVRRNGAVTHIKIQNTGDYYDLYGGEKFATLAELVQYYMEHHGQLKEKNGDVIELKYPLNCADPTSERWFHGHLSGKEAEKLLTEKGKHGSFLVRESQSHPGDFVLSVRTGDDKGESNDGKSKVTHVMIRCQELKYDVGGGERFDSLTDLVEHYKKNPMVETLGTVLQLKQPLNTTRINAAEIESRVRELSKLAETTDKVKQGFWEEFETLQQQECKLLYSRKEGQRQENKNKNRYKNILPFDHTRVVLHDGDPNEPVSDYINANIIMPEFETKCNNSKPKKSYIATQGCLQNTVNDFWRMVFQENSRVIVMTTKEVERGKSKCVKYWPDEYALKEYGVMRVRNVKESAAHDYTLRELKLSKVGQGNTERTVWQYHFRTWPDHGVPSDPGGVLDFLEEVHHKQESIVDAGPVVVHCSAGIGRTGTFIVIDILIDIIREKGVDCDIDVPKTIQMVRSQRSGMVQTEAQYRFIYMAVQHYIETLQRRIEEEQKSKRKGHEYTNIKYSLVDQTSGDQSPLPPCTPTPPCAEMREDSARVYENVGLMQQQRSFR

[5] = target: T3, Tyrosine-protein phosphatase non-receptor type 11 (Mus musculus); experiment: as §1; design: concentration or dose not given beside the values; details: concentration not given here
[6] = Uptake of 2-deoxyglucose into L-6 myocytes, measurements were taken in absence of insulin (basal), assayed at 100 uM; assay type: functional
[7] = Uptake of 2-deoxyglucose into L-6 myocytes, measurements were taken in presence of insulin (+ins), assayed at 100 uM; assay type: functional

| Structure (SMILES) | inhibition [1] [%] | inhibition [2] [%] | inhibition [3] [%] | inhibition [4] [%] | inhibition [5] [%] | 2-deoxyglucose uptake, % of control [6] [%] | 2-deoxyglucose uptake, % of control [7] [%] |
| --- | --- | --- | --- | --- | --- | --- | --- |
| CCCCCNC(=O)C(Cc1ccc(OC(C(=O)O)C(=O)O)cc1)NC(=O)CCC(=O)O (centres undefined) | 80 | 76 | 2 | 8 |  |  |  |
| CCCCCNC(=O)C(Cc1ccc(OC(C(=O)O)C(=O)O)cc1)NC(=O)[C@H](CC(=O)O)NC(=O)CCC(=O)O (some centres undefined) | 95 | 96 | 7 |  | 25 |  |  |
| CCCCCNC(=O)C(Cc1ccc(OS(=O)(=O)O)cc1)NC(=O)CCC(=O)O (centres undefined) | 51 | 80 | 5 | 6 |  |  |  |
| CCCCCNC(=O)C(Cc1ccc(OCC(=O)OC)c(C(=O)OC)c1)NC(=O)[C@H](Cc1ccccc1)NC(=O)OC(C)(C)C (some centres undefined) | 0 |  | 0 |  | 1 | 114 | 72 |
| CCCCCNC(=O)C(Cc1ccc(OCC(=O)OC)c(C(=O)OC)c1)NC(=O)[C@H](Cc1ccccc1)NC(=O)CCC(=O)OC (some centres undefined) | 0 |  | 3 |  | 0 | 225 | 77 |
| CCCCCNC(=O)C(Cc1ccc(OC(C(=O)O)C(=O)O)cc1)NC(=O)[C@H](Cc1ccccc1)NC(=O)OC(C)(C)C (some centres undefined) | 91 | 88 | 27 |  | 10 |  |  |
| CCCCCNC(=O)C(Cc1ccc(OC(C(=O)O)C(=O)O)cc1)NC(=O)[C@H](C)NC(=O)OC(C)(C)C (some centres undefined) | 83 | 76 | 0 |  | 3 |  |  |
| CCCCCNC(=O)C(Cc1ccc(OC(C(=O)O)C(=O)O)cc1)NC(=O)[C@H](Cc1ccccc1)NC(=O)CCC(=O)O (some centres undefined) | 99 | 97 | 23 |  | 44 |  |  |
| CCCCCNC(=O)[C@H](Cc1ccc(OCC(=O)O)c(C(=O)O)c1)NC(=O)[C@@H](Cc1ccccc1)NC(=O)OC(C)(C)C | 19 |  | 0 |  | 0 | 107 | 89 |
| CCCCC(N)C(=O)NC(=O)C(Cc1ccc(OC(C(=O)O)C(=O)O)cc1)NC(=O)CCC(=O)O (centres undefined) |  | 93 | 4 |  | 48 |  |  |
| CCCCNC(=O)C(Cc1ccc(OC(C(=O)O)C(=O)O)cc1)NC(=O)CCC(=O)O (centres undefined) |  | 37 | 5 |  | 1 |  |  |
| CCCCCNC(=O)C(Cc1ccc(OCC(N)=O)c(C(=O)O)c1)NC(=O)CCC(=O)O (centres undefined) | 5 | 16 | 0 |  | 2 |  |  |
| CCCCCNC(=O)C(Cc1ccc(OCC(=O)O)c(C(=O)O)c1)NC(=O)CCC(=O)O (centres undefined) | 87 | 93 | 0 |  | 5 |  |  |
| CCCCCNC(=O)C(Cc1ccc(OC(C(=O)O)C(=O)O)cc1)NC(=O)[C@H](COc1ccc(Cc2cc(Cl)ccc2Cl)cc1)NC(=O)CCC(=O)O (some centres undefined) |  | 98 | 33 |  | 28 |  |  |
| CC(C)CCNC(=O)C(Cc1ccc(OC(C(=O)O)C(=O)O)cc1)NC(=O)CCC(=O)O (centres undefined) |  | 48 | 5 |  | 7 |  |  |

Second part, led by results:

| inhibition [1] [%] | inhibition [2] [%] | inhibition [3] [%] | inhibition [4] [%] | inhibition [5] [%] | Structure (SMILES) | 2-deoxyglucose uptake, % of control [6] [%] | 2-deoxyglucose uptake, % of control [7] [%] |
| --- | --- | --- | --- | --- | --- | --- | --- |
| 98 | 98 | 26 |  | 71 | CCCCCNC(=O)[C@H](Cc1ccc(OC(C(=O)O)C(=O)O)cc1)NC(=O)[C@H](Cc1ccc(C(=O)c2ccccc2)cc1)NC(=O)CCC(=O)O |  |  |
| 93 |  | 0 |  | 10 | CCCCCNC(=O)C(Cc1ccc(OCC(=O)O)c(C(=O)O)c1)NC(=O)[C@H](Cc1ccccc1)NC(=O)CCC(=O)O (some centres undefined) | 105 | 83 |
| 78 | 84 | 0 |  | 2 | CCCCCNC(=O)C(Cc1ccc(OCC(=O)O)c(C(=O)O)c1)NC(=O)[C@H](Cc1ccccc1)NC(=O)OC(C)(C)C (some centres undefined) | 81 | 108 |
|  | 56 | 2 |  | 58 | O=C(O)CCC(=O)NC(Cc1ccc(OC(C(=O)O)C(=O)O)cc1)C(=O)NCc1ccc(C(=O)O)cc1 (centres undefined) |  |  |
|  | 72 | 9 |  | 18 | CCCCCNC(=O)C(Cc1ccc(OC(C(=O)O)C(=O)O)cc1)NC(=O)CC1(CC(=O)O)CCCC1 (centres undefined) |  |  |
|  | 46 | 3 |  | 11 | CCOC(CNC(=O)C(Cc1ccc(OC(C(=O)O)C(=O)O)cc1)NC(=O)CCC(=O)O)OCC (centres undefined) |  |  |
|  | 90 | 10 |  | 12 | CCCCCNC(=O)C(Cc1ccc(OC(C(=O)O)C(=O)O)cc1)NC(=O)[C@H](CC(=O)O)NC(=O)OC(C)(C)C (some centres undefined) |  |  |
|  | 57 | 6 |  | 10 | CCCCCNC(=O)C(Cc1ccc(OC(C(=O)O)C(=O)O)cc1)NC(=O)[C@H]1C[C@@H]1C(=O)O (some centres undefined) |  |  |
